Values after ≈ are worked out from the molar mass of the structure shown.
Assay: Aqueous solubility at pH 7.5
Format: physicochemical

| SMILES | solubility [µg/mL] |
| --- | --- |
| CC(C)(C)c1cc(NC(=O)Nc2cccc(Cl)c2Cl)n(-c2ccc([N+](=O)[O-])cc2)n1 | 66 (≈ 147 µM) |
| CC(C)(C)c1cc(NC(=O)Nc2cccc(Cl)c2Cl)n(-c2ccc(S(C)(=O)=O)cc2)n1 | 79 (≈ 164 µM) |
| CC(C)(C)c1cc(NC(=O)Nc2cccc(Cl)c2Cl)n(-c2cccc([N+](=O)[O-])c2)n1 | 18 (≈ 40.2 µM) |
| CC(C)(C)c1cc(NC(=O)Nc2cccc(Cl)c2Cl)n(-c2cccc(N)c2)n1 | 594 (≈ 1420 µM) |
| CC(C)(C)c1cc(NC(=O)Nc2cccc(Cl)c2Cl)n(-c2cccc(F)c2)n1 | 17 (≈ 40.4 µM) |
| CC(C)(C)c1cc(NC(=O)Nc2cccc(Cl)c2Cl)n(-c2ccccc2)n1 | 24 (≈ 59.5 µM) |
| COc1cccc(-n2nc(C(C)(C)C)cc2NC(=O)Nc2cccc(Cl)c2Cl)c1 | 46 (≈ 106 µM) |

Reference: ChEMBL document CHEMBL1133482, “1-Phenyl-5-pyrazolyl ureas: potent and selective p38 kinase inhibitors” (Bioorg Med Chem Lett, 2000)
